ChEMBL document CHEMBL1122462, “Potential antiatherosclerotic agents. 4. [(Functionalized-alkyl)amino]benzoic acid analogues of cetaben” (1983)

How the values were obtained:
Rattus norvegicus [1] = test: In vivo Triglyceride lowering activity at dose as 0.03 % of the diet; assay type: functional
Rattus norvegicus [2] = test: In vivo Sterol lowering activity at dose as 0.01% of the diet; assay type: functional
Rattus norvegicus [3] = test: In vivo sterol lowering activity at dose of 0.10 % of the diet; assay type: functional
Rattus norvegicus [4] = test: In vivo Triglyceride lowering activity at dose as 0.01 % of the diet; assay type: functional
Rattus norvegicus [5] = test: In vivo Triglyceride lowering activity at a dose of 0.10 % of the diet; assay type: functional
[6] = molecular target: T1, Sterol O-acyltransferase 1 (Rattus norvegicus) (UniProt O70536); test: In vitro inhibitory activity against acyl coenzyme A:cholesterol acyltransferase; set-up: concentration or dose not given beside the values; settings: concentration not given here
T1 sequence (whole entry): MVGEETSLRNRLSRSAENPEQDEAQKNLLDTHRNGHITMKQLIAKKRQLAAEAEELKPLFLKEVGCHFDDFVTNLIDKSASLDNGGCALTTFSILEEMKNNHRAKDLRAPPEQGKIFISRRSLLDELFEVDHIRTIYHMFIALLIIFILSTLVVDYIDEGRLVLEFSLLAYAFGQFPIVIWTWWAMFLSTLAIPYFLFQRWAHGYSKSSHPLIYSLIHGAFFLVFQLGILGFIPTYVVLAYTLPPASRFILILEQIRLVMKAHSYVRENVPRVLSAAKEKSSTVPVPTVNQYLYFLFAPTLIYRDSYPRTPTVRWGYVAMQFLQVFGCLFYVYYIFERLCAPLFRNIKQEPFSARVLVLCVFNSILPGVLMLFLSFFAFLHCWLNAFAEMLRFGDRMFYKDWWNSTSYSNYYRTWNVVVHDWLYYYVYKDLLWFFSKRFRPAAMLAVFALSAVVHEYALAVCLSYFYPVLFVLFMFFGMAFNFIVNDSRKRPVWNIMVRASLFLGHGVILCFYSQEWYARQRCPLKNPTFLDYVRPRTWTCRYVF

Rattus norvegicus [7] = test: In vivo sterol lowering activity, dosed as 0.03 % of the diet; assay type: functional

SMILES	triglyceride lowering activity (Rattus norvegicus [1])	serum sterol level, percent of control (Rattus norvegicus [2])	serum sterol level, % of control (Rattus norvegicus [3])	serum triglyceride level (% of control) (Rattus norvegicus [4])	serum triglyceride level (% of control) (Rattus norvegicus [5])	inhibition [6]	serum sterol level, percent of control (Rattus norvegicus [7])
CCOC(=O)c1ccc(NC(=O)CCCCCCCCCCCCC[Si](C)(C)C)cc1	91%	99%	101%	99%	97%	< 21%	98%
CCCCSCCCCCCCCCCCNc1ccc(C(=O)O)cc1	<71%	91%	<78%	79%	<62%	< 40%	91%
CCOC(=O)c1ccc(NCCCCCCCCCCCCCCC(C)C)cc1	<54%	87%	<80%	<66%	<58%	0%	<85%
CCOC(=O)c1ccc(NCCCCCCCCCCC[Si](C)(C)C)cc1	111%	85%	<57%	113%	<78%	17%	87%
CCCCCC(=O)CCCCCCCCCCNc1ccc(C(=O)OCC)cc1	<58%	99%	89%	<64%	<42%	< 44%	100%
CCCCCCCCCCC(C#N)CCCCCNc1ccc(C(=O)OCC)cc1 (configuration not stated)	<69%	100%	87%	<66%	<51%	< 69%	97%
CCSCCCCCCCCCCCCCCCCNc1ccc(C(=O)O)cc1	<58%	91%	88%	62%	<59%	< 36%	91%
CC(C)CCCCCCCCCCCCCCNc1ccc(C(=O)O)cc1	<50%	<79%	<44%	76%	<29%	< 51%	<67%
O=C(O)c1ccc(NCCCCCCCCCCCNc2ccc(C(=O)O)cc2)cc1	85%	99%	87%	<68%	84%	< 30%	94%
CCCCCCCCCCCCCCCC(=O)Nc1ccc(C(=O)O)cc1	94%	111%	112%	103%	105%	16%	118%
CCOC(=O)c1ccc(NCCCCCCCCCCCCCCCC(=O)OC)cc1	173%	105%	104%	140%	129%	0%	110%
CCCCCCCCCCCCCCCCN(C(=O)CCC(=O)O)c1ccc(C(=O)O)cc1	90%	111%	88%	84%	117%	13%	105%
COCCCCCCCCCCCCCCCCNc1ccc(C(=O)O)cc1	<73%	97%	<86%	76%	<52%	< 43%	96%
CCCCCCCCCCC(=O)CCCCCNc1ccc(C(=O)O)cc1	<68%	95%	<84%	<63%	<46%	18%	90%
CCOC(=O)c1ccc(NCCCCCCCCCCCCCCCC(=O)O)cc1	133%	100%	106%	99%	147%	4%	106%
CCOC(=O)c1ccc(NCCCCCCCCCCCCCC(C)C)cc1	84%	92%	<80%	84%	<61%	9%	<89%
CCCCCCCCCCCCCCCCN(CC(=O)OCC)c1ccc(C(=O)OC)cc1	97%	106%	104%	113%	104%	11%	100%
O=C(O)c1ccc(NCCCCCCCCCCCC2CCCCC2)cc1	<51%	95%	83%	73%	<48%	< 56%	91%
CCCCCCCCCCCCCCCCN(CC(=O)O)c1ccc(C(=O)O)cc1	100%	105%	93%	105%	99%	15%	109%
O=C(O)c1ccc(NCCCCCCCCCCCS)cc1	<61%	92%	<84%	<65%	<50%	< 26%	89%
CCOC(=O)c1ccc(NC(=O)CCCCCCCCCCCCCCCBr)cc1	94%	96%	<86%	84%	79%	< 32%	93%
